Data as given in patent US20240189289A1, “INHIBITORS OF EPHB3 SIGNALING” (The Brigham and Women`s Hospital, Inc., priority 2021, published 2024).
Entries after “also recorded” stand apart in the source; their conditions may differ.

How the values were obtained:
EphA4 = EphA4 (Homo sapiens, UniProt P54764); assay: Eph receptor kinase activity assay (radiometric), EphA4; type: biochemical
EphB3 = target: T1, EphB3 (Homo sapiens, UniProt P54753); assay: EphB3 radiometric kinase activity assay (33P ATP filter binding); type: biochemical
T1 sequence (P54753 34-998): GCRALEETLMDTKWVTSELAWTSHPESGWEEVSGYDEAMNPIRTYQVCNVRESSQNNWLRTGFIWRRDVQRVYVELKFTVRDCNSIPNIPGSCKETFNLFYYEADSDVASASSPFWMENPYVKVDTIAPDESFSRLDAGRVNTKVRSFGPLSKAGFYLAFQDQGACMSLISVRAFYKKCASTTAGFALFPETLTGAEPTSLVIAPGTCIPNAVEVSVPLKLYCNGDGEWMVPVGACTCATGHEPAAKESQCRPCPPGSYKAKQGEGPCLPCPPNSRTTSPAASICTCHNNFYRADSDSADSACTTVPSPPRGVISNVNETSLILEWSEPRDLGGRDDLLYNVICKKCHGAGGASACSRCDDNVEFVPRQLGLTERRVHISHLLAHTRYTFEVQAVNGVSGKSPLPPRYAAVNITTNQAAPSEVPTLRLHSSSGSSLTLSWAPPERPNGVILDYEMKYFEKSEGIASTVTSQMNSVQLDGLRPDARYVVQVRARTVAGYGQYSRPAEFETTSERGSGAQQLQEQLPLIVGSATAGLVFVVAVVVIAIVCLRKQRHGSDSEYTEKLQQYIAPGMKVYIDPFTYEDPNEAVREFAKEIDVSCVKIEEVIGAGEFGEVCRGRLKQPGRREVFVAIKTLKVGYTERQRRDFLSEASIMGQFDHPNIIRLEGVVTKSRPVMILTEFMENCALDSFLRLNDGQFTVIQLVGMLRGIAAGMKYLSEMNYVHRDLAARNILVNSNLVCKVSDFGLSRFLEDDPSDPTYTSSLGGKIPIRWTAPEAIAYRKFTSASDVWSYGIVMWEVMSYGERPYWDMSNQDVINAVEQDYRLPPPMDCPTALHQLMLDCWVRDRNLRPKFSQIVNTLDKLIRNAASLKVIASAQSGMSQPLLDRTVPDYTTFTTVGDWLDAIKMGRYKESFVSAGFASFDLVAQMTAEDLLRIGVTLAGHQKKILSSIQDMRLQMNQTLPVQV
Description: EphB3 radiometric kinase activity assay. To study the EphB3 kinase activity, a radioactive filter binding assay using 33P ATP was performed as described at the […] International Centre for Kinase profiling. […] The mix was harvested onto P81 filter plates and counts were read on a Topcount NXT.

EphB4 = target: T2, EphB4 (Homo sapiens, UniProt P54760); assay: Eph receptor kinase activity assay (radiometric), EphB4; type: biochemical
T2 sequence (P54760 16-987): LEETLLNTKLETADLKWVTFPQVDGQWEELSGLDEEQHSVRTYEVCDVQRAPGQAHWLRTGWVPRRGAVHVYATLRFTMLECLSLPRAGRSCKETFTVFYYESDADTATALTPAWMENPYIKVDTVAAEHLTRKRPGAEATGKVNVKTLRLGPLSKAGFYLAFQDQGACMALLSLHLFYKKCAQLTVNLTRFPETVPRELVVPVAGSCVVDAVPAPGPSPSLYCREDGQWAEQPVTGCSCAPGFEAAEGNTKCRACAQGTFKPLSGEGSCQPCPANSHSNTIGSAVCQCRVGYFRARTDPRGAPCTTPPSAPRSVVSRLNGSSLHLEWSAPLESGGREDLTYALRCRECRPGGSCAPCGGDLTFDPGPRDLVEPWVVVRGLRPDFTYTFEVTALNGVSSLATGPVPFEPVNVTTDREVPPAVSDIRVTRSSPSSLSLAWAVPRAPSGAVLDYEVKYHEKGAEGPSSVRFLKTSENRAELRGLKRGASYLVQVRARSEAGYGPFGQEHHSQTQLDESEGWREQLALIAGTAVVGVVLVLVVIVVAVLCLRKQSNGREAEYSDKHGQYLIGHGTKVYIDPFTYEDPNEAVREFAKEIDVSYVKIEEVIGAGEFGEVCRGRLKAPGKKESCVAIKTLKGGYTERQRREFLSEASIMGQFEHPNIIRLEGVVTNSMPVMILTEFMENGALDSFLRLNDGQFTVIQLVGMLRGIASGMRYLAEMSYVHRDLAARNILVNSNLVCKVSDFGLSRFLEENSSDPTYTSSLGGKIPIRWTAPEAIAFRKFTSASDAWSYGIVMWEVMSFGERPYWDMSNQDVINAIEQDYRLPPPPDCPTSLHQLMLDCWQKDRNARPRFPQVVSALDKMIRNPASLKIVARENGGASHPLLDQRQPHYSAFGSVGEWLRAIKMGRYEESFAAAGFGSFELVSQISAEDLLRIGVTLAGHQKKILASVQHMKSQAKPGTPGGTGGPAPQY

Aqueous solubility = type: physicochemical; conditions: aqueous medium at pH 7.4 (buffer not specified), pH 7.4, aqueous buffer; read-out: aqueous solubility
[1] = MTT and ATP-viability assays; type: cell-based; conditions: 30 μM
N2A neuronal cells = assay: Neurotoxicity assay of astrocyte-conditioned medium (LDH release); type: cell-based, mouse; conditions: ACM from astrocytes pre-treated with compound, LDH release after 24 h
Description: (§1) Generation of astrocyte-conditioned medium (ACM). […] After 24 h, cells were extensively washed with 1×PBS, and incubated with fresh astrocyte complete medium for 48 h. Supernatants were spun down and kept at −80° C. until tested in migration and neurotoxicity assays.
Neurotoxicity Assay. N2A neuronal cells (#CCL-131, ATCC) were plated and pre-activated with 100 ng/mL mouse IFNγ (#485-MI-100; R&D Systems) for 24 h.
Thereafter, after extensive washing with 1×PBS, medium was replaced with ACM and after 24 h the supernatant was harvested for cytotoxicity evaluation by measuring LDH release with CytoTox 96 nonradioactive cytotoxicity assay kit (#G1780, Promega) following the manufacturer's protocol.

splenic CD11b+ monocytes = assay: Monocyte migration assay with astrocyte-conditioned medium; type: cell-based, mouse; conditions: ACM from astrocytes pre-treated with compound
Description: as §1
Monocyte Migration Assay. Monocytes were purified from spleens from C57BL/6J mice using CD11b Microbeads (#130-049-601, Miltenyi) following the manufacturer's instructions. 100,000 monocytes were seeded in the upper chamber of a 24-well cell culture transwell, with a 5 μm pore size (#3421, Thermo Fisher Scientific), containing 300 μL of astrocyte-conditioned medium (as detailed earlier) in the bottom chamber. After 3 h incubation at 37° C. in 5% CO2, cells were collected from the lower chamber after shaking and accutase solution incubation (#A6964, Sigma-Aldrich) and quantified by FACS.

astrocytes = assay: Mitochondrial ROS measurement (MitoSOX) in astrocytes; type: cell-based, mouse; conditions: Rotenone and Antimycin A given together
Description: Mitochondrial ROS measurement. 50,000 astrocytes were seeded per well in 96-well black plates and rested for 2 days in complete medium, followed by activation or inhibitor pretreatment for 24 h. MitoSOX red (Thermo Fisher Scientific, #M36008) was used to stain for mitochondrial ROS for 10 min following the manual and the signal was detected on Infinite M1000 PRO Microplate Reader (Tecan). The fluorescent signal was normalized to cell number estimated using CyQUANT cell proliferation assay kit (Invitrogen, #C7026) first and then compared to control group for data analysis.

[2] = system: PI3K/AKT/mTOR signaling in astrocytes; assay: Western blot of PI3K/AKT/mTOR/NF-κB signaling in primary murine astrocytes; type: cell-based, mouse; conditions: astrocytes activated 30 minutes with TNFα and IL-1β
Description: Mouse primary astrocyte cultures. […] The cell suspension was then cultured at 37° C. in humidified 5% CO2 on poly-L-Lysine (#P4707, Sigma-Aldrich) pre-coated cell culture flasks. Medium was replaced every 3-5 days. The cells reached confluence after 7-10 days. Microglia were separated by shaking the glia culture at 225 rpm at 37° C. for at least 3 h and washing extensively with 1×PBS. Astrocytes were detached by mild trypsinization with Trypsin-EDTA (0.05%) at 37° C. and plated. […] Both cell types were then cultured separately for downstream procedures. […] Finally, microglia and astrocytes of each condition where magnetically separated as before and lysed for downstream gene expression analysis.
SDS-PAGE and Western blot. […] Membranes were blocked in 10% skimmed milk (#M0841, Lab Scientific) in TBS-T (#IBB-180-2L, Boston BioProducts). Primary antibodies were incubated ON at 4° C. and secondary 30 minutes at RT.
HRP-conjugated blots were developed using the KwikQuant imaging system and KwikQuant western blot detection kit (#R1004 Kindle Biosciences).

EphA4, sequence (P54764 20-986): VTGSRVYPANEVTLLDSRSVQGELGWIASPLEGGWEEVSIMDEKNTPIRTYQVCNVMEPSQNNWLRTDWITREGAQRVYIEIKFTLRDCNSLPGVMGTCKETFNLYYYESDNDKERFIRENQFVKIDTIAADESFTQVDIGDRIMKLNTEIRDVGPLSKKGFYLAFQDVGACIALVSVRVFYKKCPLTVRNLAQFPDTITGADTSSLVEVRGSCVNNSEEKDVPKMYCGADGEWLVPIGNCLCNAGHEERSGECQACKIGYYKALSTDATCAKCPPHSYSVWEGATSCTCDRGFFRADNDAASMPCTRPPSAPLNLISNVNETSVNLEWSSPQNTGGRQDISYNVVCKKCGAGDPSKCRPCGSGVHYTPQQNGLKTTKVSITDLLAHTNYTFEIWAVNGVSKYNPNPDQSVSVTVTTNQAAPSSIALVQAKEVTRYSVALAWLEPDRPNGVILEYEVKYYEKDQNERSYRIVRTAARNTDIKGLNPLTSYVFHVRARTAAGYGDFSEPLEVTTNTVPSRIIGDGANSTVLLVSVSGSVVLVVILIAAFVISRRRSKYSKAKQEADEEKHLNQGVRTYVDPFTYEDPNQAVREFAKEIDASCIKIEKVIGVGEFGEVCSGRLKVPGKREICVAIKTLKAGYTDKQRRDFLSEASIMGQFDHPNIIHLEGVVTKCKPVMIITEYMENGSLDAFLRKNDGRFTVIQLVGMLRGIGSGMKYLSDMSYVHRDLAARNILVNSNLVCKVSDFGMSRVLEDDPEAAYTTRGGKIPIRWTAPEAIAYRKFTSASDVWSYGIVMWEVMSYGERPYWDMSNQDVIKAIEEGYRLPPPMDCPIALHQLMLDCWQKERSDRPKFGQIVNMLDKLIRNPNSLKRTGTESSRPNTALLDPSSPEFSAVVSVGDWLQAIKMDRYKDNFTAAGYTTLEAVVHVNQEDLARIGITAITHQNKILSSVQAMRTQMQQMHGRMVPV

With O=C(Nc1ccccc1Cl)c1cnc2ccc(C3CCNCC3)cn12 [A-38, N-(2-chlorophenyl)-6-(piperidin-4-yl)imidazo[1,2-a]pyridine-3-carboxamide] as the compound, how does the “EphA4 % act 10 nM” value (EphA4; 10 nM compound) read?
The value was 32%.

What about the “EphA4 % act 100 nM” value (EphA4; 100 nM compound) of the same compound?
The value was 14%.

And the “EphA4 % act 300 nM” value (EphA4; 300 nM compound)?
Its value is 9%.

And the remaining activity at 0.01 µM (EphB3; 10 nM compound, read-out: EphB3 % act 10 nM)?
The remaining activity at 0.01 µM was 37%.

And the remaining activity at 0.1 µM (EphB3; 100 nM compound, read-out: EphB3 % act 100 nM)?
Its remaining activity at 0.1 µM is 14%.

And the remaining activity at 0.3 µM (EphB3; 300 nM compound, read-out: EphB3 % act 300 nM)?
Its remaining activity at 0.3 µM is 7%.

What about the remaining activity at 0.01 µM (EphB4; 10 nM compound, read-out: EphB4 % act 10 nM) of the same compound?
Its remaining activity at 0.01 µM is 68%.

And the remaining activity at 0.1 µM (EphB4; 100 nM compound, read-out: EphB4 % act 100 nM)?
Its remaining activity at 0.1 µM is 9%.

What about the remaining activity at 0.3 µM (EphB4; 300 nM compound, read-out: EphB4 % act 300 nM) of the same compound?
The remaining activity at 0.3 µM was 3%.

What about the solubility (Aqueous solubility) of the same compound?
Its solubility is greater than 10000 µg/mL.

And the “cytotoxicity in MTT and ATP-viability assays” value [1]?
The value was “no cytotoxicity”.

With O=C(CCl)Nc1ccc2c(Nc3cc(O)ccc3Cl)ncnc2c1 [C9] as the compound, how does the ACM neurotoxic activity (N2A neuronal cells) read?
Its ACM neurotoxic activity is “decrease in neurotoxicity; also recorded: reduced ACM neurotoxic”.

And the ACM chemoattractant activity (splenic CD11b+ monocytes)?
Its ACM chemoattractant activity is “reduced ACM neurotoxic and chemoattractant activity”.

With C=C(C)[C@H]1Cc2c(ccc3c2O[C@@H]2COc4cc(OC)c(OC)cc4[C@@H]2C3=O)O1 [Rotenone, reference compound] as the compound, how does the “mitochondrial ROS levels” value (astrocytes) read?
The value was “increases mitochondrial ROS levels”.

For FC(F)c1nc2ccccc2n1-c1nc(N2CCOCC2)nc(N2CCOCC2)n1 [ZSTK474, reference compound], which “phosphorylation of AKT” value [2] is on record?
Its value is “suppressed”.
